Legend:
Test in all cases: relative viability (nuclei count vs DMSO), 5 days (fraction); higher = more cells survive
Seliciclib + Decitabine = compound: CC[C@H](CO)Nc1nc(NCc2ccccc2)c2ncn(C(C)C)c2n1 [Seliciclib] + Nc1ncn([C@H]2C[C@H](O)[C@@H](CO)O2)c(=O)n1 [Decitabine] (partner 2 µM)
How it was run: (§1)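 A single step with final 0.05% Triton X-100, 1% formaldehyde and 1 ug/ml Hoechst fixed the cells and stained nuclei 5 days after treatment. Lung cancer cell lines in 1536-well plates had been treated by pin tool the day after seeding with one drug alone or a fixed anchor-drug dose plus five library-drug doses (not always all listed) in √10 steps, and nuclei were counted on 4× images. Relative viability is the ratio of nuclei in treated wells to nuclei in vehicle wells, taken as the median of duplicate plates.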

Seliciclib + AZD7762 = compound: CC[C@H](CO)Nc1nc(NCc2ccccc2)c2ncn(C(C)C)c2n1 [Seliciclib] + NC(=O)Nc1cc(-c2cccc(F)c2)sc1C(=O)N[C@H]1CCCNC1 [AZD7762] (partner 0.2 µM)
How it was run: as §1

Seliciclib + Bortezomib = compound: CC[C@H](CO)Nc1nc(NCc2ccccc2)c2ncn(C(C)C)c2n1 [Seliciclib] + CC(C)C[C@H](NC(=O)[C@H](Cc1ccccc1)NC(=O)c1cnccn1)B(O)O [Bortezomib] (partner 0.002 µM)
How it was run: as §1

Seliciclib + Lapatinib = compound: CC[C@H](CO)Nc1nc(NCc2ccccc2)c2ncn(C(C)C)c2n1 [Seliciclib] + CS(=O)(=O)CCNCc1ccc(-c2ccc3ncnc(Nc4ccc(OCc5cccc(F)c5)c(Cl)c4)c3c2)o1 [Lapatinib] (partner 2 µM)
How it was run: as §1

| Cell Line | relative viability (Seliciclib + Decitabine; first compound 0.08 µM) | relative viability (Seliciclib + Decitabine; first compound 0.253 µM) | relative viability (Seliciclib + Decitabine; first compound 0.8 µM) | relative viability (Seliciclib + Decitabine; first compound 2.53 µM) | relative viability (Seliciclib + Decitabine; first compound 8 µM) | relative viability (Seliciclib + AZD7762; first compound 0.08 µM) | relative viability (Seliciclib + AZD7762; first compound 0.253 µM) | relative viability (Seliciclib + AZD7762; first compound 0.8 µM) | relative viability (Seliciclib + AZD7762; first compound 2.53 µM) | relative viability (Seliciclib + AZD7762; first compound 8 µM) | relative viability (Seliciclib + Bortezomib; first compound 0.08 µM) | relative viability (Seliciclib + Bortezomib; first compound 0.253 µM) | relative viability (Seliciclib + Bortezomib; first compound 0.8 µM) | relative viability (Seliciclib + Bortezomib; first compound 2.53 µM) | relative viability (Seliciclib + Bortezomib; first compound 8 µM) | relative viability (Seliciclib + Lapatinib; first compound 0.08 µM) | relative viability (Seliciclib + Lapatinib; first compound 0.253 µM) | relative viability (Seliciclib + Lapatinib; first compound 0.8 µM) | relative viability (Seliciclib + Lapatinib; first compound 2.53 µM) | relative viability (Seliciclib + Lapatinib; first compound 8 µM) |
| --- | --- | --- | --- | --- | --- | --- | --- | --- | --- | --- | --- | --- | --- | --- | --- | --- | --- | --- | --- | --- |
| NCI-H1993 | 0.62 | 0.549 | 0.632 | 0.54 | 0.441 | 0.778 | 0.739 | 0.843 | 0.662 | 0.63 | 1.12 | 0.878 | 0.936 | 0.784 | 0.924 | 0.845 | 0.848 | 0.838 | 0.773 | 0.797 |
| NCI-H2085 | 0.518 | 0.501 | 0.563 | 0.49 | 0.483 | 0.948 | 0.962 | 0.998 | 1.03 | 0.868 | 0.759 | 1.09 | 1.1 | 1.03 | 0.841 | 0.739 | 0.793 | 0.667 | 0.635 | 0.497 |
| NCI-H2087 | 0.284 | 0.313 | 0.247 | 0.227 | 0.221 | 1.28 | 1.46 | 1.33 | 1.24 | 1.11 | 0.73 | 0.792 | 0.719 | 0.752 | 0.661 | 1.13 | 1.14 | 1.02 | 0.749 | 0.965 |
| NCI-H2126 | 0.567 | 0.565 | 0.606 | 0.55 | 0.47 | 1.04 | 0.987 | 0.994 | 0.822 | 0.909 | 1.12 | 1.14 | 1.07 | 0.957 | 1.04 | 0.698 | 0.656 | 0.737 | 0.552 | 0.613 |
| NCI-H2347 | 0.66 | 0.522 | 0.597 | 0.602 | 0.597 | 0.817 | 0.759 | 0.745 | 0.763 | 0.865 | 1.22 | 0.927 | 0.908 | – | 0.847 | 0.867 | 0.858 | 0.835 | 0.974 | 0.905 |
| NCI-H2405 | 0.758 | 0.68 | 0.742 | 0.63 | 0.716 | 0.8 | 0.757 | 0.831 | 0.584 | 0.648 | 0.984 | 0.956 | 0.946 | 0.922 | 0.905 | 1.11 | 0.851 | 1.05 | 0.919 | 0.902 |
| NCI-H3122 | 0.399 | 0.234 | 0.479 | 0.472 | 0.294 | 0.935 | 0.939 | 0.915 | 0.959 | 0.897 | 1.03 | 1.04 | 0.995 | 0.973 | 0.967 | 0.938 | 1.08 | 0.91 | 1.04 | 0.949 |
| PC-3 [JPC-3] | 0.819 | 0.883 | 0.906 | 0.809 | 0.767 | 0.994 | 1 | 0.77 | 0.617 | 0.718 | 0.895 | 0.911 | 0.738 | 0.695 | 0.742 | 0.455 | 0.52 | 0.418 | 0.421 | 0.445 |
| PC-14 | 0.211 | 0.228 | 0.222 | 0.252 | 0.25 | 0.358 | 0.35 | 0.358 | 0.354 | 0.331 | 0.832 | 0.836 | 0.877 | 0.846 | 0.701 | 0.306 | 0.262 | 0.315 | 0.309 | 0.263 |
| RERF-LC-KJ | 0.711 | 0.671 | 0.737 | 0.637 | 0.65 | 0.861 | 0.894 | 0.992 | 0.837 | 0.789 | 1.04 | 1.02 | 1.09 | 1.14 | 1.07 | 0.852 | 0.783 | 0.913 | 0.928 | 0.788 |

Reference: the supplement of paper PMC10307832
